Data: patent US20260083750A1, “SMALL MOLECULE INHIBITORS OF KRAS PROTEINS” (MERCK SHARP & DOHME LLC, priority 2022, published 2026)

Key:
[1] = system: PANC08.13 cells (homozygous KRAS-G12D activating mutation); test: Cellular phospho-ERK assay in G12D cell line; type: cell-based; settings: Homo sapiens, PANC-08-13, 2 hours compound incubation, ratio of p-ERK vs. total ERK, read-out: PANC 0813 pERK IC50
How it was run: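 Cells (10,000-15,000/well) were seeded overnight, then treated for 2 h at 37 °C with a 10-point 1:3 titration from 30 μM final. Lysates were assayed by AlphaLISA SureFire Ultra multiplex, with the p-ERK/total-ERK ratio as read-out; IC50 came from a 4-parameter logistic fit.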

[2] = molecular target: T1, KRAS-G12C (C51S/C80L/C118S) (Homo sapiens, UniProt P01116, C118S/C51S/C80L/G12C); test: SOS-catalyzed nucleotide exchange assay (Procedure A, TR-FRET); type: biochemical; settings: 60 min preincubation, SOS + GTP, read-out: KRAS G12C GNE IC50
T1 construct: N-terminal biotin-acceptor peptide […]
T1 sequence (P01116 with tags, fused parts or gaps isoform P01116-2 G12C/C51S/C80L/C118S): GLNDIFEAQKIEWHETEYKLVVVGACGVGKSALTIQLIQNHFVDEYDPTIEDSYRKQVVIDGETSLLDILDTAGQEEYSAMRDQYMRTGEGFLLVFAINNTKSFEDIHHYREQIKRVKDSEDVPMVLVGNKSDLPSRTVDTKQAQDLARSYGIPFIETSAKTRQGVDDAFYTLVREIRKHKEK
How it was run: (§1)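 Preformed biotinylated RAS–Bodipy-GDP/Tb-streptavidin complex preincubated with compound 60 min at room temperature, then SOS plus GTP (3 mM final) added. Exchange times: G13D 30 min, G12C/D 60 min, G12V 90 min. Final RAS/SOS: G12C 3 nM/40 nM, G12D 1 nM/40 nM, G12V 1.25 nM/160 nM, G13D 1.25 nM/0 nM. TR-FRET 520/495 ratio, four-parameter fit.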

[3] = molecular target: T2, KRAS-G13D (Homo sapiens, UniProt P01116, G13D); test: as above; type: biochemical; settings: 60 min preincubation, GTP, read-out: KRAS G13D GNE IC50
T2 construct: N-terminal biotin-acceptor peptide […]
T2 sequence (P01116 with tags, fused parts or gaps isoform P01116-2 G13D): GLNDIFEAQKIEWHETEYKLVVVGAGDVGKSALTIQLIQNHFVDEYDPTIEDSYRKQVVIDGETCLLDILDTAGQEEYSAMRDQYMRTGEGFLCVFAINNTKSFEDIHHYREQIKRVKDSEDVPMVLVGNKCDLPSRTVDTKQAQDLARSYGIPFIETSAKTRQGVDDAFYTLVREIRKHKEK
How it was run: as §1

[4] = molecular target: T3, KRAS-G12V (Homo sapiens, UniProt P01116, G12V); test: as above; type: biochemical; settings: 60 min preincubation, SOS + GTP, read-out: KRAS G12V GNE IC50
T3 construct: N-terminal biotin-acceptor peptide […]
T3 sequence (P01116 with tags, fused parts or gaps isoform P01116-2 G12V): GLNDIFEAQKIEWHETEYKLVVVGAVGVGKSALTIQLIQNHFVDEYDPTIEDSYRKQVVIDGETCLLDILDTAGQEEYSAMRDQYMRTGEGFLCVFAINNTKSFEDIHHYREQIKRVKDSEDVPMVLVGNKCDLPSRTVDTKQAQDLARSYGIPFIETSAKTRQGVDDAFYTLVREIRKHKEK
How it was run: as §1

[5] = molecular target: T4, KRAS-G12D (Homo sapiens, UniProt P01116, G12D); test: as above; type: biochemical; settings: 60 min preincubation, SOS + GTP, read-out: KRAS G12D GNE IC50
T4 construct: N-terminal biotin-acceptor peptide […]
T4 sequence (P01116 with tags, fused parts or gaps isoform P01116-2 G12D): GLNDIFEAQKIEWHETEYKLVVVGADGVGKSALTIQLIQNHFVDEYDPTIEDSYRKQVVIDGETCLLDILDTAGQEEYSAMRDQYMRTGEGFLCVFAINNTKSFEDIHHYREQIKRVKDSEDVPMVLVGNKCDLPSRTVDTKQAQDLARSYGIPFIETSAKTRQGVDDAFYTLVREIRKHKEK
How it was run: as §1

[6] = system: SW620 cells (homozygous KRAS-G12V activating mutation); test: Cellular phospho-ERK assay in G12V cell line; type: cell-based; settings: Homo sapiens, SW-620, 2 hours compound incubation, ratio of p-ERK vs. total ERK, read-out: SW620 pERK IC50
Procedure: Procedure for Cellular Phospho-ERK Assay in G12D and G12V Cell Lines
PANC08.13 cells (ATCC® CRL-2551™), containing homozygous KRAS-G12D activating mutation, were cultured in growth medium made of RPMI1640-GlutaMAX™—I (ThermoFisher Scientific 61870) containing 15% heat inactivated fetal bovine serum (ThermoFisher Scientific 10091148)). SW620 cells (ATCC® […]), containing homozygous KRAS-G12V activating mutation, were cultured in growth medium that contains RPMI 1640-GlutaMAX™—I (ThermoFisher Scientific 61870) containing 10% heat inactivated fetal bovine serum (ThermoFisher Scientific 10091148).
Cells for the assay were harvested in growth medium after TrypLE (ThermoFisher scientific 12604021) digestion and were seeded in a 384-well collagen coated cell culture plate (Corning 356702) at a density of 10,000-15,000 cells/20 uL/well, and incubated at 37° C., 5% CO2 overnight. The compound (with 10 mM stock concentration) dose-response titrations were prepared [30 μM final ERK detection assay concentration and 1:3 dilutions, 10-point dose response] and appropriate amounts (270 nL) of test compounds were dispensed in a 384-well intermediate plate using an Echo 550 liquid handler. 30 uL/well of RPMI medium 1640-GlutaMAX™—I was added to the intermediate plate and the contents of the intermediate plate (10 uL/well) were then transferred to the 384-well collagen coated cell culture plate, which was incubated at 37° C., 5% CO2 for 2 hours. After removal of medium from the collagen coated cell culture plate, cells were lysed in lysis buffer from Alpha SureFire® Ultra™ Multiplex p-ERK and total ERK assay kit (PerkinElmer MPSU-PTERK) containing Halt™ Protease and Phosphatase inhibitor cocktail (ThermoFisher Scientific 78446) at room temperature with constant shaking at 300 rpm for 30 minutes. The cell lysates were then transferred to an OptiPlate-384 plate (PerkinElmer 6005620), and the phosphorylation of ERK (p-ERK) and total ERK levels were detected by Alpha SureFire® Ultra™ Multiplex p-EEK kit and total ERK assay kit (PerkinElmer MPSU-PTERK) following the manufacturer's protocol. Assay plates were read on a EnVision Multimode Plate Reader (PerkinElmer), and the ratio of p-ERK vs. total ERK in each well was used as the final readout. Dose response curves were analyzed using a 4-parameter logistic model to calculate IC50 values using Spotfire software.

[7] = molecular target: HRAS (Homo sapiens, UniProt P01112); test: SOS-catalyzed nucleotide exchange assay (Procedure A, TR-FRET); type: biochemical; settings: 60 min preincubation, SOS + GTP, read-out: HRAS GNE IC50
Sequence of HRAS (P01112 with tags, fused parts or gaps): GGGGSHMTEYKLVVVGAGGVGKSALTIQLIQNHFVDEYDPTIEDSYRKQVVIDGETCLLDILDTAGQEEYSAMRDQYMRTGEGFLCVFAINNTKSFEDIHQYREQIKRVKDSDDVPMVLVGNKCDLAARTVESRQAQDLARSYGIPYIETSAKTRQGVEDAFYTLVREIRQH
How it was run: (§2)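 Biotinylated WT-sequence HRAS or NRAS (1.25 nM final) loaded with Bodipy-GDP plus Tb-streptavidin, preincubated 60 min with compound (10-point, 3-fold). Exchange started with human SOS (40 nM) and 3 mM GTP, 60 min at room temperature, pH 7.5 Mg buffer. TR-FRET 520/495 ratio normalised to DMSO and saturating inhibitor, four-parameter fit.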

[8] = molecular target: NRAS (Homo sapiens, UniProt P01111); test: as above; type: biochemical; settings: 60 min preincubation, SOS + GTP, read-out: NRAS GNE IC50
Sequence of NRAS (P01111 with tags, fused parts or gaps): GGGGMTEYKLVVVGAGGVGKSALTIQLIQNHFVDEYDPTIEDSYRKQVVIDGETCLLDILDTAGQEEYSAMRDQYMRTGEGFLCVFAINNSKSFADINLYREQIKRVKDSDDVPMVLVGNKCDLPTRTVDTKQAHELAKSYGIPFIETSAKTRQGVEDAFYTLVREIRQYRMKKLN
How it was run: as §2

SMILES | IC50 [1] [nM] | IC50 [2] [nM] | IC50 [3] [nM] | IC50 [4] [nM] | IC50 [5] [nM] | IC50 [6] [nM] | IC50 [7] [nM] | IC50 [8] [nM]
C[C@@H]1CCOCCN1c1nc(OC[C@@]23CCCN2C[C@H](F)C3)nc2c(F)c(-c3ccc(F)c4sc(N)c(C#N)c34)c(Cl)cc12 [compound 7, 2-amino-4-(6-chloro-8-fluoro-2-(((2R,7aS)-2-fluorotetrahydro-1H-pyrrolizin-7a(5H)-yl)methoxy)-4-((R)-5-methyl-1,4-oxazepan-4-yl)quinazolin-7-yl)-7-fluorobenzo[b]thio-phene-3-carbonitrile] | 192 | 13.1 | 8.55 | 6 | 9.18 | 67.4 | > 11100 | > 11100
CC1COCCN(c2nc(OC[C@@]34CCCN3C[C@H](F)C4)nc3c(F)c(-c4ccc(F)c5sc(N)c(C#N)c45)c(Cl)cc23)C1 (stereo partly drawn) [compound 8, 2-amino-4-(6-chloro-8-fluoro-2-(((2R,7aS)-2-fluorotetrahydro-1H-pyrrolizin-7a(5H)-yl)methoxy)-4-(6-methyl-1,4-oxazepan-4-yl)quinazolin-7-yl)-7-fluorobenzo[b]thio-phene-3-carbonitrile] | 138 | 20.8 | 12.8 | 7.59 | 9.92 | 104 | > 11100 | > 11100
CC1CN(c2nc(OC[C@@]34CCCN3C[C@H](F)C4)nc3c(F)c(-c4ccc(F)c5sc(N)c(C#N)c45)c(Cl)cc23)CCCO1 (stereo partly drawn) [compound 9, 2-amino-4-(6-chloro-8-fluoro-2-(((2R,7aS)-2-fluorotetrahydro-1H-pyrrolizin-7a(5H)-yl)methoxy)-4-(2-methyl-1,4-oxazepan-4-yl)quinazolin-7-yl)-7-fluorobenzo[b]thio-phene-3-carbonitrile] | 155 | 23.1 | 8.74 | 6.17 | 24.4 | 101 | > 11100 | > 11100
CC1CCN(c2nc(OC[C@@]34CCCN3C[C@H](F)C4)nc3c(F)c(-c4ccc(F)c5sc(N)c(C#N)c45)c(Cl)cc23)CCO1 (stereo partly drawn) [compound 10, 2-amino-4-(6-chloro-8-fluoro-2-(((2R,7aS)-2-fluorotetrahydro-1H-pyrrolizin-7a(5H)-yl)methoxy)-4-(7-methyl-1,4-oxazepan-4-yl)quinazolin-7-yl)-7-fluorobenzo[b]thio-phene-3-carbonitrile] | 2600 | 47.3 | 110 | 41.7 | 700 | 538 | > 11100 | > 11100
N#Cc1c(N)sc2c(F)ccc(-c3c(Cl)cc4c(N5CCOCC(F)C5)nc(OC[C@@]56CCCN5C[C@H](F)C6)nc4c3F)c12 (stereo partly drawn) [compound 11, 2-amino-4-(6-chloro-8-fluoro-4-(6-fluoro-1,4-oxazepan-4-yl)-2-(((2R,7aS)-2-fluorotetrahydro-1H-pyrrolizin-7a(5H)-yl)methoxy)quinazo-lin-7-yl)-7-fluorobenzo[b]thio-phene-3-carbonitrile] | 39.9 | 18.2 | 6.85 | 6.4 | 8.27 | 21.9 | > 11100 | > 11100
N#Cc1c(N)sc2c(F)ccc(-c3c(Cl)cc4c(N5CCOCC(F)(F)C5)nc(OC[C@@]56CCCN5C[C@H](F)C6)nc4c3F)c12 [compound 12, 2-amino-4-(6-chloro-4-(6,6-difluoro-1,4-oxazepan-4-yl)-8-fluoro-2-(((2R,7aS)-2-fluorotetrahydro-1H-pyrrolizin-7a(5H)-yl)methoxy)quinazo-lin-7-yl)-7-fluorobenzo[b]thio-phene-3-carbonitrile] | 75.4 | 19.5 | 12.9 | 11.6 | 34.2 | 32.9 | > 11100 | > 11100
CC1(F)COCCN(c2nc(OC[C@@]34CCCN3C[C@H](F)C4)nc3c(F)c(-c4ccc(F)c5sc(N)c(C#N)c45)c(Cl)cc23)C1 (stereo partly drawn) [compound 13, 2-amino-4-(6-chloro-8-fluoro-4-(6-fluoro-6-methyl-1,4-oxazepan-4-yl)-2-(((2R,7aS)-2-fluorotetrahydro-1H-pyrrolizin-7a(5H)-yl)methoxy)quinazo-lin-7-yl)-7-fluorobenzo[b]thio-phene-3-carbonitrile] | 208 | 32.2 | 21.9 | 10.4 | 46.7 | 152 | > 11100 | > 11100
CC(C)(C)NC[C@@]1(COc2nc(N3CCCOCC3)c3cc(Cl)c(-c4ccc(F)c5sc(N)c(C#N)c45)c(F)c3n2)CC1(F)F [compound 25, 2-amino-4-(2-(((R)-1-((tert-butylamino)methyl)-2,2-difluorocyclopropyl)methoxy)-6-chloro-8-fluoro-4-(1,4-oxazepan-4-yl)quinazolin-7-yl)-7-fluorobenzo[b]thiophene-3-carbonitrile] | 1310 | 28.6 | 52.9 | 17.7 | 247 | 407 | > 11100 | > 11100
CC(C)NC[C@@]1(COc2nc(N3CCCOCC3)c3cc(Cl)c(-c4ccc(F)c5sc(N)c(C#N)c45)c(F)c3n2)CC1(F)F [compound 26, 2-amino-4-(6-chloro-2-(((R)-2,2-difluoro-1-((isopropylamino)meth-yl)cyclopropyl)meth-oxy)-8-fluoro-4-(1,4-oxazepan-4-yl)quinazolin-7-yl)-7-fluorobenzo[b]thiophene-3-carbonitrile] | 992 | 54.9 | 59.4 | 22.6 | 177 | 357 | > 11100 | > 11100
CC1(NC[C@@]2(COc3nc(N4CCCOCC4)c4cc(Cl)c(-c5ccc(F)c6sc(N)c(C#N)c56)c(F)c4n3)CC2(F)F)CCC1 [compound 28, 2-amino-4-(6-chloro-2-(((R)-2,2-difluoro-1-(((1-methylcyclobutyl)ami-no)methyl)cyclopropyl)methoxy)-8-fluoro-4-(1,4-oxazepan-4-yl)quinazolin-7-yl)-7-fluorobenzo[b]thiophene-3-carbonitrile] | 2420 | 78.2 | 255 | 99.5 | 1850 | 867 | > 11100 | > 11100
